No end group written: not given here.
How the values were obtained:
ECs = assay: Fluorescence microscopy of peptide internalization; type: cell-based; conditions: 12.5 μM PenNPF-FITC
Protocol: (§1) FIGS. 1A-1C illustrate the effect of the GrB-EHITSN inhibitory peptide on ECs. A. MTT assay applied on ECCtrl, myc-GrB-EHITSN-transfected ECs and myc-GrB-EHITSN-transfected ECs exposed to 12.5 μM PenNFP-FITC peptide for 1 h, 37° C.; p<0.05; WB of cell lysates (inset a1) of ECCtrl (a), myc-GrB-EHITSN-ECs (b) and myc-GrB-EHITSN-ECs+12.5 μM PenNPF for 1 h, 37° C. (c), using phospho (p)-p38 and p38 Abs. B. Quantification of EC proliferation: ECCtrl (a), myc-GrB-EHITSN-ECs (b), myc-GrB-EHITSN-ECs+12.5 μM PenNPF (c), myc-GrB-EHITSN-ECs+12.5 μM Pen-AAA (d), myc-GrB-EHITSN-ECs+12.5 μM Pen (e), myc-GrB-EHITSN-ECs+12.5 μM NPF (f), and myc-GrB-EHITSN-ECs+12.5 μM scrambled penNPF, (g). Data in A and B are mean±SEM of 3 independent experiments performed in triplicates. *p<0.05 vs. ECCtrl. C. Fluorescence microscopy of ECs exposed to 12.5 μM PenNPF-FITC, fixed and mounted on glass slides with Prolong Antifade with DAPI. Bar: 50 μm. Inset c1. ECCtrl (a) and myc-GrB-EHITSN-ECs (b) lysates resolved on SDS PAGE and transferred to nitrocellulose membranes were overlaid with the PenNFP-FITC.
(§2) ECs stably transfected with the myc-GrB-EHITSN [selected based on neomycin-resistance], were treated with the PenNPF-FITC peptide to address whether inhibition of GrB-EHITSN ameliorates EC proliferation. […] A growth curve was generated to relate the OD^570 values to the cell number per well. […]

myc-GrB-EHITSN = molecular target: T1, myc-GrB-EHITSN (Homo sapiens, UniProt Q15811); assay: Overlay of lysates on nitrocellulose membranes with FITC peptide, detected by FITC Ab; type: binding; conditions: overlay on myc-GrB-EHITSN-EC lysates; n=3
T1 construct: with a conserved cleavage site (IDQD^271GK) throughout the evolution; expressed in transfected cells; host or cells: endothelial cells (ECs), stably transfected, neomycin-selected; lysates resolved by SDS-PAGE and blotted
T1 sequence (Q15811 1-271): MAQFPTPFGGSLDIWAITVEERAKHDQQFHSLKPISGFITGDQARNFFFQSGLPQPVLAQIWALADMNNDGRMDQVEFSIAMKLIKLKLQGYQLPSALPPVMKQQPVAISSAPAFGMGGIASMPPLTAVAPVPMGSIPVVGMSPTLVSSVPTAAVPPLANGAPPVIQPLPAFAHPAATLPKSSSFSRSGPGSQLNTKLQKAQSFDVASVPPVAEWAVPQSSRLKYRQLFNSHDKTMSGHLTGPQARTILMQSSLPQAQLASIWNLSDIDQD
Protocol: as §1, §2

[1] = tested on: myc-GrB-EHITSN-transfected ECs; assay: MTT assay of EC proliferation / cell growth; type: cell-based; conditions: for cell growth / EC proliferative potential (MTT): myc-GrB-EHITSN-transfected ECs, 12.5 μM peptide, 1 h, 37° C., vs transfected ECs not exposed
Protocol: (§3) (c), using phospho (p)-p38 and p38 Abs. […] C. […] Bar: 50 μm. Inset c1. ECCtrl (a) and myc-GrB-EHITSN-ECs (b) lysates resolved on SDS PAGE and transferred to nitrocellulose membranes were overlaid with the PenNFP-FITC.
(§4) ECs stably transfected with the myc-GrB-EHITSN [selected based on neomycin-resistance], were treated with the PenNPF-FITC peptide to address whether inhibition of GrB-EHITSN ameliorates EC proliferation. […] A growth curve was generated to relate the OD^570 values to the cell number per well. […] Inset c1. ECCtrl (a) and myc-GrB-EHITSN-ECs (b) lysates resolved on SDS PAGE and transferred to nitrocellulose membranes were overlaid with the PenNFP-FITC.

phospho-p38 = assay: WB of cell lysates using phospho (p)-p38 and p38 Abs; type: cell-based; conditions: GrB-EHITSN-transfected ECs, exposure for 24 h
Protocol: as §3, §4

myc-GrB-EHITSN-mice = assay: RVSP measured by right heart catheterization; type: in vivo, mouse
Protocol: FIGS. 3A-3D illustrate representative H&E staining of lung sections of myc-GrB-EHITSN-KDITSN mice (A, a1, B) and RVSP measurements (C) in wt-(bar a), empty-Lipo (bar b) and myc-GrB-EHITSN-mice (bar c), 10 days of GrB-EHITSN treatment. […] Data are mean±SEM. For morphological assessment of peptide internalization (panel D), mice were sacrificed 1 h after injection. Bars: 50 μm (A, B); 20 μm (a1, D). n=3.

BrdU+ ECs = assay: BrdU cell proliferation assay in mouse lungs; type: in vivo; conditions: myc-GrB-EHITSN plasmid via cationic liposomes into mouse lungs, day 6 of treatment
From the text: FIGS. 2A-2B illustrate the proliferative effect of the GrB-EHITSN fragment on EC in vivo. Wt-mice (B) and myc-GrB-EHITSN-treated mice, day 5 of treatment (A) were subjected to BrdU proliferation assay. Data are mean±SEM. All data are representative of 3 mice in each group. Bars: 20 μm.
(§5) GrB-EHITSN has EC proliferative potential in vivo. To address the proliferative potential of GrB-EHITSN in vivo, the myc-GrB-EHITSN DNA plasmid was delivered via cationic liposomes into mouse lungs. (Knezevic, 2011). […] For continuous and efficient long-term expression of myc-GrB-EHITSN, mice were injected repeatedly every 48 h, for 9 days (Bardita, 2013). Actin was used as loading control. In parallel studies, myc-GrB-EHITSN-transduced mice (FIG. 2B) and wt-controls (FIG. 2A) were subjected to BrdU cell proliferation and morphometric analyses, at day 6 of GrB-EHITSN treatment (Bardita, 2013). BrdU was injected intra-peritoneally every 24 h, for 2 consecutive days (day 4 and 5 of myc-GrB-EHITSN treatment). Incorporated BrdU was detected via BrdU-FITC Ab; CD31 Ab/AlexaFluor 594 was used for positive identification of ECs. For morphological assessment of peptide internalization mice were sacrificed 1 h after injection. […] Data in FIG. 2A-B indicate that the GrB-EHITSN has EC proliferative in vivo.

GrB-EHITSN-mice = assay: Fulton's index (RV hypertrophy); type: in vivo, mouse; conditions: means±SEM, p<0.05 vs wt-mice
From the text: GrB-EHITSN increases pulmonary pressure in mouse lungs. […] The Fulton's index (RV/left ventricle plus septum), indicative of RV hypertrophy, assessed as in (Qin, 2012) was higher in GrB-EHITSN-mice compared to wt-mice (0.31±0.03 vs. 0.22±0.01; means±SEM; p<0.05).

[2] = WB with myc Ab on lung lysates (expression of the encoded protein); type: in vivo, mouse; conditions: after liposomal plasmid delivery; efficiently expressed at 48 h post-delivery
Protocol: as §5

Row | Molecule | internalization by ECs (fluorescent imaging) (ECs) | interaction with myc-GrB-EHITSN (myc-GrB-EHITSN) | decrease in the number of myc-GrB-EHITSN-transfected cells ([1]; calculated on 3 successive points of growth curve, vs transfected ECs not exposed to peptide) | cell growth / EC proliferative potential (MTT) [1] | OD570 values ([1]; wells with myc-GrB-EHITSN-transfected cells exposed to peptide) | phospho-p38 / p38 activation (phospho-p38) | decrease in RVSP (myc-GrB-EHITSN-mice; myc-GrB-EHITSN-mice, 50 μg PenNPF/mouse) [%] | increase in BrdU+ ECs relative to controls (BrdU+ ECs) | Fulton's index (RV/left ventricle plus septum) (GrB-EHITSN-mice) | increase in RVSP compared to wt- and empty liposomes-treated mice (myc-GrB-EHITSN-mice; day 10-post initial GrB-EHITSN delivery) [fold] | lifetime of encoded protein in mouse lung [2]
1 | PenNPF-FITC: PenNPF inhibitory peptide carrying a FITC-tag (RQIKIWFQNRRMKWKKPTGSSSTNPFL; also: FITC tag, site not given here) | efficient internalization | direct interaction | greater than 35% | inhibits cell growth | close to the OD^570 values of control ECs | phospho-p38 inhibition |  |  |  |  | 
2 | RQIKIWFQNRRMKWKKPTGSSSTNPFL (PenNPF fusion peptide) |  |  |  | decreases the ECs proliferative potential of GrB-EHITSN |  | decreases the ECs proliferative potential of GrB-EHITSN and p38 activation | 20 |  |  |  | 
3 | myc-GrB-EHITSN: myc-tagged granzyme B cleavage fragment of intersectin-1s (two EH domains), expressed from DNA plasmid delivered via cationic liposomes (protein, left off: small tags and cut ends, myc-tagged granzyme B cleavage fragment of intersectin-1s (two EH domains), expressed from DNA plasmid delivered via cationic liposomes) MAQFPTPFGGSLDIWAITVEERAKHDQQFHSLKPISGFITGDQARNFFFQSGLPQPVLAQIWALADMNNDGRMDQVEFSIAMKLIKLKLQGYQLPSALPPVMKQQPVAISSAPAFGMGGIASMPPLTAVAPVPMGSIPVVGMSPTLVSSVPTAAVPPLANGAPPVIQPLPAFAHPAATLPKSSSFSRSGPGSQLNTKLQKAQSFDVASVPPVAEWAVPQSSRLKYRQLFNSHDKTMSGHLTGPQARTILMQSSLPQAQLASIWNLSDIDQD |  |  |  |  |  |  |  | more than 1.6 fold | 0.31±0.03 | 1.36 | about 72 h
